This note sets out measurements from patent US20240199623A1 (ILDONG PHARMACEUTICAL CO., LTD., priority 2020, published 2024).

SMILES strings stand for the structures. pEC50: −log10 of the molar value. ≈ marks a conversion by molar mass, not a printed value.

Series [1] in a line: Phosphate-buffered saline (PBS) solubility of compounds. The class given is physicochemical. The conditions noted are these: aqueous buffer, thermodynamic from solid, PBS pH 7.5, 0.5 mg/mL, vortexed 90 min, filtered, LC-MS/MS, read-out: Solubility Range. The protocol: PBS solutions (pH 7.5) were prepared according to the following compositions and stored at 4° C. Test compounds were dissolved in PBS (pH 7.5) at 0.5 mg/mL and vortexed for 90 min. The PBS solution was sequentially filtered through a 0.45, 1.2, […] syringe filter. Concentration of test compounds were determined using LC-MS/MS with appropriate dilution of the samples.

For series [2], the target named is human wild type-CFTR (Homo sapiens, UniProt P13569). Nature of the series: Cell-based YFP assay. The conditions noted are these: CHO-K1 cells expressing human wild type-CFTR and YFP-H148Q/I152L; forskolin 20 μM = 100% activity; read-out: Cell-based YFP Assay (EC50) Concentration Range. Also noted: expressed in transfected cells; host or cells: CHO-K1 (Chinese hamster ovary). A digest of the protocol: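 CHO-K1 cells co-expressing human wild-type CFTR and YFP-H148Q/I152L halide sensor, grown 48 h at 37 °C, then in PBS. YFP quenching by I⁻ influx read at 37 °C after adding 140 mM I⁻ solution, sampled every 0.4 s for 14 s. Triplicates averaged; EC50 fitted.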
Chain of human wild type-CFTR (P13569 whole entry): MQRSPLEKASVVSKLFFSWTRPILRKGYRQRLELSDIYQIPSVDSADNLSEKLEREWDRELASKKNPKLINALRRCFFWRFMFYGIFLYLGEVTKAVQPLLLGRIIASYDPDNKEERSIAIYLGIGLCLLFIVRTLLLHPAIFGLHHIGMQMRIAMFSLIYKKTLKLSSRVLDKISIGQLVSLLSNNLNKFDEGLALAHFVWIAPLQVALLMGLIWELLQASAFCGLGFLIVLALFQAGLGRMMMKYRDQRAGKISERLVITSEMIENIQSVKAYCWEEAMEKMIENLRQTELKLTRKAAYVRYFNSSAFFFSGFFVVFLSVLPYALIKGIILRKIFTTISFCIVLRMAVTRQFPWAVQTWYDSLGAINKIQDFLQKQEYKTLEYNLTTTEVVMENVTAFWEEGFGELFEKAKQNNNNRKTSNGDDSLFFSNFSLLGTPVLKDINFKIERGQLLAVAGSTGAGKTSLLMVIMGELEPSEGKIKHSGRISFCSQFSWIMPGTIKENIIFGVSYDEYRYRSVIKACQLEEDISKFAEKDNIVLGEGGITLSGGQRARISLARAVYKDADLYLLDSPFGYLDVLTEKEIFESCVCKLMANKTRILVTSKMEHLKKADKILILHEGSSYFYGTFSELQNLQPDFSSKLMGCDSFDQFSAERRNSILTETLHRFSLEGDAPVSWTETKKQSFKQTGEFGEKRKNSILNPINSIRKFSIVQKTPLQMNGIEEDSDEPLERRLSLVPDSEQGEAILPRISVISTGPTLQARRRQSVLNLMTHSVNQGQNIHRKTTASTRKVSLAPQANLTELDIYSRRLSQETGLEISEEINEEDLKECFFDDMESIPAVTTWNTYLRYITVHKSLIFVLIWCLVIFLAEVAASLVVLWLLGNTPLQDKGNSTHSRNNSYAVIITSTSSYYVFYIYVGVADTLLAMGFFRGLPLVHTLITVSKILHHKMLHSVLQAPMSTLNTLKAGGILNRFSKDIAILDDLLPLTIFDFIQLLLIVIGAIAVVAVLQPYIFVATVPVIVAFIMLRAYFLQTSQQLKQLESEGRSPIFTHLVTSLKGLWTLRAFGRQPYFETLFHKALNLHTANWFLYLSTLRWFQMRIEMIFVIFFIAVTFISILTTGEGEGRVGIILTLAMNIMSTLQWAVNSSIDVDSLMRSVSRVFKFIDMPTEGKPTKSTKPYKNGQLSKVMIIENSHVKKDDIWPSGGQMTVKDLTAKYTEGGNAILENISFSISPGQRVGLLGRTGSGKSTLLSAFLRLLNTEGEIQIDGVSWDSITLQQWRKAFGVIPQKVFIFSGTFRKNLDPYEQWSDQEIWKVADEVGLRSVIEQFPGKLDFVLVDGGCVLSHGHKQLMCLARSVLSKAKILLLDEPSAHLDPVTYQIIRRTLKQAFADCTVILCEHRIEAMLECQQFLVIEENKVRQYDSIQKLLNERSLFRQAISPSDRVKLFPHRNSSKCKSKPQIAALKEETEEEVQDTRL

For `COC(=O)C1CN(C(=O)c2ccc(NC(=O)c3cc4nccc(-c5ccc(OC)c(OC)c5)n4n3)cc2)C1` [Compound 65, methyl 1-(4-(7-(3,4-dimethoxyphenyl)pyrazolo[1,5-a]pyrimidine-2-carboxamido)benzoyl) azetidine-3-carboxylate], in series [1], the solubility at 90 min is below 0.1 µg/mL. For the same compound, in series [2], the pEC50 was above 6.70.

In the case of `COc1ccc(-c2ccnc3cc(C(=O)Nc4ccc(NC(=O)[C@H](C)NC(=O)OC(C)(C)C)cc4)nn23)cc1OC` [Compound 281], in series [1], the solubility at 90 min was below 0.1 µg/mL. Besides, the pEC50 in series [2] was above 6.70.

Regarding `COc1ccc(-c2ccnc3cc(C(=O)Nc4ccc(C(=O)N5CC6(CN(C)C6)C5)cc4)nn23)cc1OC` [Compound 166, 7-(3,4-dimethoxyphenyl)-N-(4-(6-methyl-2,6-diazaspiro[3.3]heptane-2-carbonyl)phenyl)pyrazolo [1,5-a]pyrimidine-2-carboxamide], in series [1], the solubility at 90 min was below 0.1 µg/mL. Moreover, the pEC50 in series [2] was 5.70 to 6.70.

Take `COC(=O)c1ccc(NC(=O)c2cc3nccc(-c4ccc(OC)c(OC)c4)n3n2)c(C)c1` [Compound 125, methyl 4-(7-(3,4-dimethoxyphenyl)pyrazolo [1,5-a]pyrimidine-2-carboxamido)-3-methylbenzoate]: the solubility at 90 min in series [1] was below 0.1 µg/mL. Moreover, the pEC50 in series [2] is above 6.70.

As to `COc1ccc(-c2ccnc3cc(C(=O)Nc4ccc(C(=O)NCCN5CCOCC5)cc4)nn23)cc1OC` [Compound 139, 7-(3,4-dimethoxyphenyl)-N-(4-((2-morpholinoethyl)carbamoyl)phenyl)pyrazolo[1,5-a]pyrimidine-2-carboxamide], the solubility at 90 min in series [1] is below 0.1 µg/mL. The pEC50 in series [2] was above 6.70.

`COc1ccc(-c2ccnc3cc(C(=O)N4CCN(C(=O)OC(C)(C)C)CC4)nn23)cc1OC` [Compound 62, tert-butyl 4-(7-(3,4-dimethoxyphenyl)pyrazolo[1,5-a]pyrimidine-2-carbonyl)piperazine-1-carboxylate]: in series [1], the solubility at 90 min lay in the range of 0.1 to 10 µg/mL (≈ 0.214 to 21.4 µM). Also, the pEC50 in series [2] was 5.70 to 6.70.

Turning to `COc1ccc(-c2ccnc3cc(C(=O)Nc4ccc(NC(=O)[C@@H](NC(=O)OC(C)(C)C)C(C)C)cc4)nn23)cc1OC` [Compound 282, tert-butyl (S)-(1-((4-(7-(3,4-dimethoxyphenyl)pyrazolo [1,5-a]pyrimidine-2-carboxamido)phenyl)amino)-3-methyl-1-oxobutan-2-yl)carbamate], in series [1], the solubility at 90 min is below 0.1 µg/mL. For the same compound, the pEC50 in series [2] is above 6.70.

For `COc1ccc(-c2ccnc3cc(C(=O)N[C@H]4CC[C@H](C(=O)N5CCN(C(=O)OC(C)(C)C)CC5)CC4)nn23)cc1OC` [Compound 76, tert-butyl 4-((1R,4R)-4-(7-(3,4-dimethoxyphenyl)pyrazolo [1,5-a]pyrimidine-2-carboxamido)cyclohexane-1-carbonyl)piperazine-1-carboxylate], the solubility at 90 min in series [1] lay in the range of 0.1 to 10 µg/mL (≈ 0.169 to 16.9 µM). Further, in series [2], the pEC50 is 5.70 to 6.70.

Regarding `COc1ccc(-c2ccnc3cc(C(=O)Nc4ccc(NC(=O)[C@H](C)N)cc4)nn23)cc1OC` [Compound 284, (S)-N-(4-(2-amino-propanamido)phenyl)-7-(3,4-dimethoxyphenyl)pyrazolo [1,5-a]pyrimidine-2-carboxamide], the solubility at 90 min in series [1] was 0.1 to 10 µg/mL (≈ 0.217 to 21.7 µM). Besides, the pEC50 in series [2] was above 6.70.

Turning to `COC(=O)c1ccc(NC(=O)c2cc3nccc(-c4cc(OC)c(OC)c(OC)c4)n3n2)cc1` [Compound 32, methyl 4-(7-(3,4,5-trimethoxyphenyl)pyrazolo [1,5-a]pyrimidine-2-carboxamido)benzoate], the solubility at 90 min in series [1] was below 0.1 µg/mL. Moreover, in series [2], the pEC50 was above 6.70.

For `CCOc1ccc(NC(=O)Nc2cc3nccc(-c4ccc(OC)c(OC)c4)n3n2)cc1` [Compound 109, 1-(7-(3,4-dimethoxyphenyl)pyrazolo[1,5-a]pyrimidin-2-yl)-3-(4-ethoxyphenyl)urea], the solubility at 90 min in series [1] was below 0.1 µg/mL. Besides, in series [2], the pEC50 is 5.70 to 6.70.

For `COC(=O)[C@H](CO)NC(=O)c1ccc(NC(=O)c2cc3nccc(-c4ccc(OC)c(OC)c4)n3n2)cc1` [Compound 43, methyl (4-(7-(3,4-dimethoxyphenyl)pyrazolo [1,5-a]pyrimidine-2-carboxamido)benzoyl)-L-serinate], in series [1], the solubility at 90 min was below 0.1 µg/mL. For the same compound, in series [2], the pEC50 is above 6.70.

As to `COc1ccc(-c2ccnc3cc(C(=O)Nc4ccc(C(=O)N5CCOCC5)cc4F)nn23)cc1OC` [Compound 157, 7-(3,4-dimethoxyphenyl)-N-(2-fluoro-4-(morpholine-4-carbonyl)phenyl)pyrazolo[1,5-a]pyrimidine-2-carboxamide], in series [1], the solubility at 90 min is below 0.1 µg/mL. Further, the pEC50 in series [2] was above 6.70.

For the compound `COc1ccc(-c2ccnc3cc(C(=O)Nc4ccc(C(=O)OCCN5CCOCC5)cc4)nn23)cc1OC` [Compound 164, 2-morpholinoethyl 4-(7-(3,4-dimethoxyphenyl)pyrazolo [1,5-a]pyrimidine-2-carboxamido)benzoate], in series [1], the solubility at 90 min is below 0.1 µg/mL. In addition, the pEC50 in series [2] is above 6.70.

With `COc1ccc(-c2ccnc3cc(C(=O)N[C@H]4CC[C@H](C(=O)N5CCOCC5)CC4)nn23)cc1OC` [Compound 75, 7-(3,4-dimethoxyphenyl)-N-((1R,4R)-4-(morpholine-4-carbonyl)cyclohexyl) pyrazolo[1,5-a]pyrimidine-2-carboxamide], the solubility at 90 min in series [1] is above 10 µg/mL. In addition, the pEC50 in series [2] is at most 5.70.

As for `COc1ccc(-c2ccnc3cc(C(=O)N[C@H]4CC[C@@H](C(=O)OC)CC4)nn23)cc1OC` [Compound 9, methyl (1S,4S)-4-(7-(3,4-dimethoxyphenyl)pyrazolo [1,5-a]pyrimidine-2-carboxamido)cyclohexane-1-carboxylate], the solubility at 90 min in series [1] lay within 0.1 to 10 µg/mL (≈ 0.228 to 22.8 µM).

As to `COc1ccc(-c2ccnc3cc(C(=O)N4CCC(NC(=O)OC(C)(C)C)CC4)nn23)cc1OC` [Compound 100, tert-butyl (1-(7-(3,4-dimethoxyphenyl)pyrazolo[1,5-a]pyrimidine-2-carbonyl)piperidin-4-yl)carbamate], the solubility at 90 min in series [1] fell in the range of 0.1 to 10 µg/mL (≈ 0.208 to 20.8 µM).

As to `COC(=O)c1cccc(NC(=O)c2cc3nccc(-c4ccc(OC)c(OC)c4)n3n2)c1` [Compound 8, methyl 3-(7-(3,4-dimethoxyphenyl)pyrazolo [1,5-a]pyrimidine-2-carboxamido)benzoate], the solubility at 90 min in series [1] is below 0.1 µg/mL.

Regarding `COc1ccc(-c2ccnc3cc(C(=O)N[C@H]4CC[C@@H](C(=O)O)CC4)nn23)cc1OC` [Compound 19, (1S,4S)-4-(7-(3,4-dimethoxyphenyl)pyrazolo [1,5-a]pyrimidine-2-carboxamido)cyclohexane-1-carboxylic acid], the solubility at 90 min in series [1] is above 10 µg/mL.

Consider `COc1ccc(-c2ccnc3cc(C(=O)N[C@H]4CC[C@H](C(=O)O)CC4)nn23)cc1OC` [Compound 21, (1R,4R)-4-(7-(3,4-dimethoxyphenyl)pyrazolo [1,5-a]pyrimidine-2-carboxamido)cyclohexane-1-carboxylic acid], for which the solubility at 90 min in series [1] is above 10 µg/mL.

With `COc1ccc(-c2ccnc3cc(C(=O)Nc4ccc(C)cn4)nn23)cc1OC` [Compound 122, 7-(3,4-dimethoxyphenyl)-N-(5-methylpyridin-2-yl)pyrazolo[1,5-a] pyrimdine-2-carboxamide], in series [2], the pEC50 is above 6.70.

For `COc1ccc(-c2ccnc3cc(C(=O)NC4CCN(C(=O)COC(C)=O)CC4)nn23)cc1OC` [Compound 84, 2-(4-(7-(3,4-dimethoxyphenyl)pyrazolo[1,5-a]pyrimidine-2-carboxamido)piperidin-1-yl)-2-oxoethyl acetate], the pEC50 in series [2] is at most 5.70.

For the compound `COc1ccc(-c2ccnc3cc(C(=O)NCc4ccc(C(=O)O)cc4)nn23)cc1OC` [Compound 94, 4-((7-(3,4-dimethoxyphenyl)pyrazolo[1,5-a]pyrimidine-2-carboxamido)methyl) benzoic acid], the pEC50 in series [2] was at most 5.70.

Regarding `CCOc1ccc(NC(=O)c2cc3nccc(-c4cccc(C)c4)n3n2)cc1` [Compound 301, N-(4-ethoxyphenyl)-7-(m-tolyl)pyrazolo[1,5-a] pyrimidine-2-carboxamide], in series [2], the pEC50 is at most 5.70.

With `COc1ccc(-c2ccnc3cc(C(=O)Nc4ccc(C(=O)N5CCN(C)CC5)cc4C)nn23)cc1OC` [Compound 128, 7-(3,4-dimethoxyphenyl)-N-(2-methyl-4-(4-methylpiperazine-1-carbonyl)phenyl)pyrazolo [1,5-a]pyrimidine-2-carboxamide], the pEC50 in series [2] was above 6.70.

Regarding `COc1ccc(-c2ccnc3cc(C(=O)Nc4ccc(C(=O)OCCN5CCOCC5)cn4)nn23)cc1OC` [Compound 242, 2-morpholinoethyl 6-(7-(3,4-dimethoxyphenyl)pyrazolo [1,5-a]pyrimidine-2-carboxamido)nicotinate], the pEC50 in series [2] was above 6.70.

As for `COc1ccc(-c2ccnc3cc(C(=O)NCc4ccc(N5CCOCC5)cc4)nn23)cc1OC` [Compound 246, 7-(3,4-dimethoxyphenyl)-N-(4-morpholinobenzyl)pyrazolo [1,5-a]pyrimidine-2-carboxamide], the pEC50 in series [2] was 5.70 to 6.70.

As to `COc1ccc(-c2ccnc3cc(C(=O)N4CCN(C(=O)OC(C)(C)C)[C@H](C)C4)nn23)cc1OC` [Compound 321, tert-butyl (R)-4-(7-(3,4-dimethoxyphenyl)pyrazolo [1,5-a]pyrimidine-2-carbonyl)-2-methylpiperazine-1-carboxylate], the pEC50 in series [2] is 5.70 to 6.70.

Usually solubility stands for how much of the substance goes into solution per volume.
